According to patent US11583531B2, “Solid forms of a toll-like receptor modulator” (Gilead Sciences, Inc., priority 2019, dated 2023):

Test: Dynamic vapor sorption (moisture sorption/desorption)
Format: physicochemical
Conditions: for solid form after the DVS experiment (form stability): post-DVS analysis, 5% to 95% RH cycle; for water absorbed (dynamic vapor sorption): up to 95% RH at 25° C.
Description: Moisture sorption/desorption data were collected on a VTI SGA-100 Vapor Sorption Analyzer. NaCl and PVP were used as calibration standards. Samples were not dried prior to analysis. Sorption and desorption data were collected over a range from 5% to 95% RH at 10% RH increments under a nitrogen purge. The equilibrium criterion used for analysis was less than 0.0100% weight change in 5 minutes with a maximum equilibration time of 3 hours. Weight percentages reported in the data section are relative to the total sample mass introduced prior to equilibration at 5% RH as measured on the instrument.

| solid form after the DVS experiment (form stability) | water absorbed (dynamic vapor sorption) | SMILES | other results |
| --- | --- | --- | --- |
| not have changed forms | about 2.3% | CCCC[C@](C)(CO)Nc1nc(N)nc2cc(F)cnc12.O=C(O)/C=C/C(=O)O [Compound I Fumaric Acid, (R)-2-((2-amino-7-fluoropyrido[3,2-d]pyrimidin-4-yl)amino)-2-methylhexan-1-ol fumaric acid] | – |
| not have changed forms | about 0.89% | CCCC[C@](C)(CO)Nc1nc(N)nc2cc(F)cnc12 [Compound I Form I, (R)-2-((2-amino-7-fluoropyrido[3,2-d]pyrimidin-4-yl)amino)-2-methylhexan-1-ol] | – |
| not have changed forms | about 0.11% | CCCC[C@](C)(CO)Nc1nc(N)nc2cc(F)cnc12.O=C(O)/C=C\C(=O)O [Compound I Maleic Acid, (R)-2-((2-amino-7-fluoropyrido[3,2-d]pyrimidin-4-yl)amino)-2-methylhexan-1-ol maleic acid] | – |
| not have changed forms | about 1.5% | CCCC[C@](C)(CO)Nc1nc(N)nc2cc(F)cnc12.O=C(O)C(O)C(O)C(=O)O [Compound I Tartaric Acid, (R)-2-((2-amino-7-fluoropyrido[3,2-d]pyrimidin-4-yl)amino)-2-methylhexan-1-ol tartaric acid] | – |

The next lines start with the compound.

| SMILES | solid form after the DVS experiment (form stability) | water absorbed (dynamic vapor sorption) | other results |
| --- | --- | --- | --- |
| CCCC[C@](C)(CO)Nc1nc(N)nc2cc(F)cnc12.Cl [Compound I HCl Form II, (R)-2-((2-amino-7-fluoropyrido[3,2-d]pyrimidin-4-yl)amino)-2-methylhexan-1-ol hydrochloride] | – | – | weight gain, sorption cycle (from 5% to 95% RH): approximately 19.8%; solid form after the DVS experiment (form stability) (hydrochloride): not have changed forms |
| CCCC[C@](C)(CO)Nc1nc(N)nc2cc(F)cnc12.CS(=O)(=O)O [Compound I Methanesulfonic Acid, (R)-2-((2-amino-7-fluoropyrido[3,2-d]pyrimidin-4-yl)amino)-2-methylhexan-1-ol methanesulfonic acid] | not have changed forms | about 38% | – |
| CCCC[C@](C)(CO)Nc1nc(N)nc2cc(F)cnc12.Cl [Compound I HCl Form I, (R)-2-((2-amino-7-fluoropyrido[3,2-d]pyrimidin-4-yl)amino)-2-methylhexan-1-ol hydrochloride] | – | – | hygroscopicity by dynamic vapor sorption (5% to 95% RH): hygroscopic; further weight loss, desorption curve (below 65% RH down to 5% RH): No further weight % loss was observed; weight gain, sorption cycle (between 5% and 55% RH): approximately 0.6%; weight gain, sorption cycle (between 65% RH and 95% RH): approximately 28.1%; weight loss, desorption curve (between 85% and 65% RH): 1.8%; weight loss, desorption curve (from 95% to 85% RH): approximately 11.2%; solid form after the DVS experiment (form stability) (hydrochloride): composed of a new crystalline material, designated Compound I Hydrochloride Form II |
